Assay [1] concerns the target T1, hP2X3 (human Purinergic P2X receptors subtype 3) (Homo sapiens, UniProt P56373).
T1 construct: expressed in transfected cells; host or cells: RLE cells (rat liver endothelium, ATCC)
T1 sequence (P56373 1-397): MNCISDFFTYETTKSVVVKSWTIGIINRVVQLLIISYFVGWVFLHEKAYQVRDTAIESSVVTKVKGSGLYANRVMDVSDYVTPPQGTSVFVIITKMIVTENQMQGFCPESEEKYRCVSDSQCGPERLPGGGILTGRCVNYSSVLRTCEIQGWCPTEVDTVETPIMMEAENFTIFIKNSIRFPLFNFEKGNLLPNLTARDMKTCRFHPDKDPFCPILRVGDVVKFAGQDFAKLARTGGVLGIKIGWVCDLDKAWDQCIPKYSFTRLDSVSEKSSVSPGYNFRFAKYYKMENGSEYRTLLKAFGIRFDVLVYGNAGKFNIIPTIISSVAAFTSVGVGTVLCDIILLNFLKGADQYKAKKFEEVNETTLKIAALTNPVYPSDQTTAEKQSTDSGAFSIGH
As to the kind of experiment: Fluo-4 calcium mobilization assay (FDSS7000), antagonists at human P2X3 receptor in RLE/hP2X3 cells. In kind it is cell-based. Conditions: RLE cells stably expressing hP2X3; 20 min preincubation; 2 uM ATP. As for the experimental part:
The antagonist properties of compounds in the present invention were assayed as inhibitors of intracellular calcium increase induced by activation of hP2X3 (human Purinergic P2X receptors subtype 3, accession number AB016608 for clone A and accession number NM_002559 for clone B), expressed in RLE cells (rat liver […], ATCC. The RLE/hP2X3 cells were grown in William's medium 1× (Gibco, 12551-032), supplemented with 10% Fetal bovine serum (Wisent, 090850), 2 mM L-Glutamine (Wisent, 609-065-EL), and 600 μg/mL Geneticin G-418 (Wisent, 61234) in a humidified incubator (5% CO2 and 37° C.).
Fluo-4 assay on FDSS7000 (Hamamatsu) was performed using cryopreserved RLE cells stably expressing hP2X3 plated in 384 well plates, 24 hr before the experiment at a density appropriate for obtaining the desired final confluence. After processing the cell plates with Fluo-4 and performing a subsequent incubation followed by washing steps, a double addition was carried out. The first addition included the test compounds diluted in HBSS buffer containing 2 mM CaCl2 preincubated for 20 min before a second addition. The second addition included 2 uM of ATP. Calcium mobilization was measured with the FDSS7000 over a time lapse of 3 min, and fluorescent counts were exported for analysis. […] Hill coefficients and % inhibitions can also be determined.

Assay [2] concerns rat FCA 96 hr paw model of inflammatory pain, heat hyperalgesia. As to the kind of experiment: Rat FCA 96 hr paw model of inflammatory pain: heat hyperalgesia (Plantar Test). In kind it is in vivo. Conditions: oral dosing 0.3-1-3-10-20 μmol/kg, 96 h after FCA. Here is the method:
(§1) One of the compounds of the present invention was evaluated in an in vivo model of inflammatory pain.
(§2) Male Sprague-Dawley rats (Charles River, St-Constant, Qc, CAN) weighing 200-225 g were utilized for the animal experiment studies. The animals were group-housed in polycarbonate, ventilated cages (filter top) in a controlled environment room (12-h light/dark cycle, 20.5-23.5° C., relative humidity: 40-70%) with food (14% Protein Rodent Maintenance Diet, Harlan Teklad, Madisson, Wis., USA) and water ad libidum.
Inflammation was induced by injection of a single 40 μl Freund's complete adjuvant (FCA) intra-plantar injection into the rat's left hindpaw. All experiments were conducted 96h after FCA administration. […]
Heat hyperalgesia (Plantar Test) was assessed using a Paw Thermal Stimulator to apply a controlled heat to the plantar surface of the affected paw. […] The heat source and timer were then turned on simultaneously; when the animal withdrew the hind paw the number of seconds was recorded. […]
Satellite animals were used to monitor the free plasma concentration of example 15 at the doses and time points used in the nociceptive tests. Free plasma EC50 values in behavioral studies were determined from 4-point concentration-response curves using non-linear regression and a sigmoidal variable slope logistic model (Prism 4.03, GraphPad Software Inc., USA).

Assay [3] concerns rat FCA 96 hr paw model of inflammatory pain, mechanical hyperalgesia. The experiment in a line: Rat FCA 96 hr paw model of inflammatory pain: mechanical hyperalgesia (Ugo Basile analgesy meter). It counts as in vivo. Conditions: oral dosing 0.3-1-3-10-20 μmol/kg, 96 h after FCA. Here is the method:
as §1, §2
Inflammation was induced by injection of a single 40 μl Freund's complete adjuvant (FCA) intra-plantar injection into the rat's left hindpaw. All experiments were conducted 96h after FCA administration. Twenty-four hours prior to behavioral testing animals were brought to the laboratory for acclimatization to the new environment. Animals were sacrificed immediately after data acquisition.
Mechanical hyperalgesia was assessed using the Ugo Basile analgesy meter (Ugo Basile, Comerio, Italy) Animals were gently restrained, and a steadily increasing pressure was applied to the dorsal surface of a hind paw via a probe with a dome-shaped tip (diameter of 1 mm). The pressure required to elicit paw withdrawal was determined. An assay cut off was set at 295 g. […] Paw withdrawal thresholds were calculated as the mean of the two values. […]

Data on 30 compounds can be found in patent US9937185B2, “Imidazopyridine compounds and uses thereof” (NEOMED INSTITUTE, priority 2013, dated 2018).

In the case of `CNC(=O)c1ccc(-c2nc3cc(C)ccn3c2CC2CCN(C(C)=O)C2)c(C)c1` (stereo not shown) [Example 44], in assay [1], the IC50 turned out to be 103 nM. Still for that read-out and setting: as for `CNC(=O)c1ccc(-c2nc3cc(Cl)ccn3c2C[C@H]2CN(C(C)=O)CCO2)c(C)c1` [Example 25], the figure is 7 nM; as for `CNC(=O)c1ccc(-c2nc3cc(C)ccn3c2C[C@H]2CN(C(=O)OC)CCO2)c(C)c1` [Example 21], 7 nM; as for `CNC(=O)c1cc(F)c(-c2nc3cc(Cl)ccn3c2C[C@H]2CN(C(C)=O)CCO2)c(F)c1` [Example 29], 5 nM.

For `CNC(=O)c1ccc(-c2nc3cc(Cl)ccn3c2C[C@@H]2CN(C(C)=O)CCO2)c(C)c1` [Example 27], in assay [1], the IC50 came out at 111 nM.

Take `CNC(=O)c1ccc(-c2nc3cc(C)ccn3c2C[C@H]2CN(C(C)=O)CCO2)c(C)c1` [Example 20]: the IC50 in assay [1] came out at 4 nM.

`CNC(=O)c1ccc(-c2nc3cc(C)ccn3c2CC2CCCN(C(=O)OC)C2)c(C)c1` (stereo not shown) [Example 37]: in assay [1], the half-inhibitory concentration (IC50) was determined as 11 nM. For the compound `CNC(=O)c1cc(F)c(-c2nc3cc(C)ccn3c2C[C@H]2CN(C(=O)OC)CCO2)c(F)c1` [Example 15, (S)-methyl-2-((2-(2,6-difluoro-4-(methylcarbamoyl)phenyl)-7-methylimidazo[1,2-a]pyridin-3-yl)methyl)morpholine-4-carboxylate], the “reversal of heat hyperalgesia” value in assay [2] is “free plasma concentration dependent reversal”. Also, the “reversal of mechanical hyperalgesia” value in assay [3] is on record as “free plasma concentration dependent reversal”. For the compound `CNC(=O)c1ccc(-c2nc3cc(C#N)ccn3c2C[C@H]2CN(C(=O)OC)CCO2)c(C)c1` [Example 36], in assay [1], the IC50 amounted to 114 nM. On the same count and under the same terms, next, `CNC(=O)c1ccc(-c2nc3cc(C)ccn3c2C[C@@H]2CN(C(C)=O)CCO2)c(C)c1` [Example 47]: 87 nM; `CNC(=O)c1cc(F)c(-c2nc3cc(Cl)ccn3c2C[C@H]2CN(C(=O)OC)CCO2)c(F)c1` [Example 28]: 6 nM; `CCC(=O)N1CCO[C@@H](Cc2c(-c3cc(F)c(C(=O)NC)cc3C)nc3cc(Cl)ccn23)C1` [Example 26]: 11 nM.

As to `CCC(=O)N1CCO[C@@H](Cc2c(-c3c(F)cc(C(=O)NC)cc3F)nc3cc(Cl)ccn23)C1` [Example 30], the IC50 in assay [1] was determined as 6 nM.

In the case of `CNC(=O)c1cc(F)c(-c2nc3cc(C)ccn3c2C[C@H]2CN(C(C)=O)CCO2)cc1F` [Example 23], the IC50 in assay [1] turned out to be 18 nM. As for `CNC(=O)c1cc(F)c(-c2nc3cc(C)ccn3c2C[C@H]2CN(C(C)=O)CCO2)c(F)c1` [Example 32], in assay [1], the 50% inhibitory concentration (IC50) came to 3 nM. The same measure, in the same setting: as for `CNC(=O)c1ccc(-c2nc3cc(C)ccn3c2CC2CCCN(C(C)=O)C2)c(C)c1` (stereo not shown) [Example 38], the figure is 10 nM; as for `CCC(=O)N1CCO[C@H](Cc2c(-c3c(F)cc(C(=O)NC)cc3F)nc3cc(C)ccn23)C1` [Example 35], 16 nM; as for `CCC(=O)N1CCO[C@@H](Cc2c(-c3cc(F)c(C(=O)NC)cc3C)nc3cc(C)ccn23)C1` [Example 17], 6 nM.

Regarding `CNC(=O)c1cc(C)c(-c2nc3cc(C)ccn3c2C[C@@H]2CN(C(C)=O)CCO2)cc1F` [Example 19], the concentration for half-maximal inhibition (IC50) in assay [1] came out at 158 nM. On the same count and under the same terms, next, `CNC(=O)c1ccc(-c2nc3cc(C)ccn3c2CC2CCN(C(=O)OC)CC2)c(C)c1` [Example 45, methyl 4-((7-methyl-2-(2-methyl-4-(methylcarbamoyl)phenyl)imidazo[1,2-a]pyridin-3-yl)methyl)piperidine-1-carboxylate]: 26 nM; `CCNC(=O)c1ccc(-c2nc3cc(C)ccn3c2C[C@H]2CN(C(C)=O)CCO2)c(C)c1` [Example 33]: 7 nM; `CNC(=O)c1cc(C)c(-c2nc3cc(C)ccn3c2C[C@H]2CN(C(C)=O)CCO2)cc1F` [Example 18]: 7 nM. Still for that read-out and setting: next, `CNC(=O)c1ccc(-c2nc3cc(C)c(F)cn3c2C[C@H]2CN(C(C)=O)CCO2)c(C)c1` [Example 39]: 10 nM; `CNC(=O)c1ccc(-c2nc3cc(C)ccn3c2CC2CCN(C(C)=O)CC2)c(C)c1` [Example 46, 4-(3-((1-acetylpiperidin-4-yl)methyl)-7-methylimidazo[1,2-a]pyridin-2-yl)-N,3-dimethylbenzamide]: 66 nM; `CNC(=O)c1ccc(-c2nc3cc(C)ccn3c2CC2CCN(C(=O)OC)C2)c(C)c1` (stereo not shown) [Example 41]: 84 nM. As to `CNC(=O)c1ccc(-c2nc3cc(C)ccn3c2CC2CC(C)N(C(C)=O)C2)c(C)c1` (stereo not shown) [Example 42], the IC50 in assay [1] is 59 nM. As for `CNC(=O)c1ccc(-c2nc3cc(C)ccn3c2C[C@@H]2CN(C(=O)OC)CCO2)c(C)c1` [Example 22], in assay [1], the IC50 was 45 nM. On the same count and under the same terms, as for `CCC(=O)N1CCO[C@@H](Cc2c(-c3ccc(C(=O)NC)cc3C)nc3cc(C)ccn23)C1` [Example 31], the figure is 5 nM; as for `CCC(=O)N1CCO[C@@H](Cc2c(-c3c(F)cc(C(=O)NC)cc3F)nc3cc(C)ccn23)C1` [Example 16], 3 nM; as for `CNC(=O)c1cc(C)c(-c2nc3cc(C)ccn3c2C[C@H]2CN(C(=O)OC)CCO2)cc1F` [Example 24], 10 nM.
